Results published in patent US7868135B2, “Compositions of lipopeptide antibiotic derivatives and methods of use thereof” (priority 2003, dated 2011).
Read-outs that look alike come from different tables or passages of the source. Starred links: 1 amine or outer side, 2 acyl side, 3 side chain; linkers in the order of their positions; H or OH if unused. Positions of bridges follow the written chain, without caps; N, C: chain ends. Non-standard residues stand in square brackets, D forms with d. Residues, ends and D or L forms follow the SMILES beside them. ξ: configuration not given here. *: point of attachment. X35 = CC(C(N[*:1])C(=O)[*:2])N(Cc1ccc(O)cc1)Cc1ccc(O)cc1; X6 = CC(NC(=O)C12CC3CC(CC(C3)C1)C2)C(N[*:1])C(=O)[*:2]; Hexadecanesulfonyl = CCCCCCCCCCCCCCCCS(=O)(=O)*; X42 = CC(NC(=O)CNCc1ccccc1)C(N[*:1])C(=O)[*:2]; X22 = CC(NC(=O)[C@H](N)CO)C(N[*:1])C(=O)[*:2]; X40 = CC(NC(=O)CCN1CCNCC1)C(N[*:1])C(=O)[*:2]; X45 = CCN(CC)CCC(=O)NC(C)C(N[*:1])C(=O)[*:2]; ξAbu(βξ-NH2) = CC(N[*:3])C(N[*:1])C(=O)[*:2]; X21 = CC(=O)SCC(=O)NC(C)C(N[*:1])C(=O)[*:2]; X38 = CC(NC(=O)CCCN(C)C)C(N[*:1])C(=O)[*:2]; X23 = CC(NCc1ccc(O)cc1)C(N[*:1])C(=O)[*:2]; X36 = CC(NC(=O)CN(C)C)C(N[*:1])C(=O)[*:2]; X44 = CCNCC(=O)NC(C)C(N[*:1])C(=O)[*:2]; Pentadecanoyl = CCCCCCCCCCCCCCC(=O)*; ξAsp(βξ-Me) = CC(C(=O)O)C(N)C(=O)O; X27 = CCCCCCCC/C=C/CCCCCCCC(=O)*; ξAbu(3ξ-NH2) = CC(N)C(N)C(=O)O; NH(CH2)11CH3 = CCCCCCCCCCCCN*; X19 = CCCCCCCCCCS(=O)(=O)*; Pip = O=C(O)[CH]1CCCCN1; ξD = NC(CC(=O)O)C(=O)O; ξPip = O=C(O)C1CCCCN1; CO = O=C([*:1])[*:2]; ξV = CC(C)C(N)C(=O)O; ξP = O=C(O)C1CCCN1

System: Staphylococcus aureus (MSSA)
Outline: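 Broth microdilution MIC per NCCLS M7-A6 with doubling serial dilutions, in cation-adjusted Mueller-Hinton broth supplemented with 0.625 mM calcium.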

| MIC (24 h) [µg/mL] | SMILES | MIC (S. aureus (MSSA), CAMHB supplemented with 0.625 mM calcium, 24 hours at about 37° C., a range = compound tested multiple times) [µg/mL] |
| --- | --- | --- |
| 4 | CCCCCCCCCCCCCCC(=O)NC(CC(=O)O)C(=O)NC1C(=O)N2CCCCC2C(=O)NC(C(C)C(=O)O)C(=O)NC(CC(=O)O)C(=O)NCC(=O)NC(CC(=O)O)C(=O)NCC(=O)NC(C(C)NC(=O)C23CC4CC(CC(C4)C2)C3)C(=O)NC(C(C)C)C(=O)N2CCCC2C(=O)NC1C (stereo not drawn) [Compound 232, C15-Amphomycin-9-(1-Adamantanylcarbonyl)] (Pentadecanoyl-D[ξAbu(βξ-NH2)][Pip][ξAsp(βξ-Me)]DGDG[X6]VP; lactam 2-C; configuration not given here) |  |
| 2 | CCCCCCCCCCCCCCC(=O)NC(CC(=O)O)C(=O)NC1C(=O)N2CCCCC2C(=O)NC(C(C)C(=O)O)C(=O)NC(CC(=O)O)C(=O)NCC(=O)NC(CC(=O)O)C(=O)NCC(=O)NC(C(C)NC(=O)CSC(C)=O)C(=O)NC(C(C)C)C(=O)N2CCCC2C(=O)NC1C (stereo not drawn) [Compound 235, C15-Amphomycin-9-(S-Acetylthioglycolyl)] (Pentadecanoyl-D[ξAbu(βξ-NH2)][Pip][ξAsp(βξ-Me)]DGDG[X21]VP; lactam 2-C; configuration not given here) |  |
|  | CCCCCCCCCCCCCCC(=O)NC(CC(=O)O)C(=O)NC1C(=O)N2CCCCC2C(=O)NC(C(C)C(=O)O)C(=O)NC(CC(=O)O)C(=O)NCC(=O)NC(CC(=O)O)C(=O)NCC(=O)NC(C(C)NC(=O)CCCCC(C)=O)C(=O)NC(C(C)C)C(=O)N2CCCC2C(=O)NC1C (centres unmarked) [Compound 237, C15-Amphomycin-9-(6-Oxoheptanoyl)] | 16 |
| 1 to 2 | CCCCCCCC/C=C/CCCCCCCC(=O)NC(C)C1NC(=O)CNC(=O)C(CC(=O)O)NC(=O)CNC(=O)C(CC(=O)O)NC(=O)C(C(C)C(=O)O)NC(=O)C2CCCCN2C(=O)C(NC(=O)C(CC(=O)O)NC(=O)CCCCCCCCCCCCCC)C(C)NC(=O)C2CCCN2C(=O)C(C(C)C)NC1=O (stereo not drawn) [Compound 238, C15-Amphomycin-9-Oleate] (Pentadecanoyl-D[ξAbu(βξ-NH2)][Pip][ξAsp(βξ-Me)]DGDG[ξAbu(βξ-NH2)](X27)VP; lactam 2-C; configuration not given here) |  |
| 1 to 2 | CCCCCCCCCCCCCCC(=O)NC(CC(=O)O)C(=O)NC1C(=O)N2CCCCC2C(=O)NC(C(C)C(=O)O)C(=O)NC(CC(=O)O)C(=O)NCC(=O)NC(CC(=O)O)C(=O)NCC(=O)NC(C(C)NC(=O)CCN2CCNCC2)C(=O)NC(C(C)C)C(=O)N2CCCC2C(=O)NC1C (stereo not drawn) [Compound 241] (Pentadecanoyl-D[ξAbu(βξ-NH2)][Pip][ξAsp(βξ-Me)]DGDG[X40]VP; lactam 2-C; configuration not given here) |  |
| 1 to 2 | CCCCCCCCCCCCCCC(=O)NC(CC(=O)O)C(=O)NC1C(=O)N2CCCCC2C(=O)NC(C(C)C(=O)O)C(=O)NC(CC(=O)O)C(=O)NCC(=O)NC(CC(=O)O)C(=O)NCC(=O)NC(C(C)NC(=O)CCCN(C)C)C(=O)NC(C(C)C)C(=O)N2CCCC2C(=O)NC1C (stereo not drawn) [Compound 242, C15-Amphomycin-9-(N,N′-Dimethyl-GABA)] (Pentadecanoyl-D[ξAbu(βξ-NH2)][Pip][ξAsp(βξ-Me)]DGDG[X38]VP; lactam 2-C; configuration not given here) |  |
| 0.5 to 1 | CCCCCCCCCCCCCCC(=O)NC(CC(=O)O)C(=O)NC1C(=O)N2CCCCC2C(=O)NC(C(C)C(=O)O)C(=O)NC(CC(=O)O)C(=O)NCC(=O)NC(CC(=O)O)C(=O)NCC(=O)NC(C(C)NC(=O)CNCC)C(=O)NC(C(C)C)C(=O)N2CCCC2C(=O)NC1C (stereo not drawn) [Compound 243, C15-Amphomycin-9-(N-Ethyl-Gly)] (Pentadecanoyl-D[ξAbu(βξ-NH2)][Pip][ξAsp(βξ-Me)]DGDG[X44]VP; lactam 2-C; configuration not given here) |  |
| 1 | CCCCCCCCCCCCCCC(=O)NC(CC(=O)O)C(=O)NC1C(=O)N2CCCCC2C(=O)NC(C(C)C(=O)O)C(=O)NC(CC(=O)O)C(=O)NCC(=O)NC(CC(=O)O)C(=O)NCC(=O)NC(C(C)NC(=O)CNCc2ccccc2)C(=O)NC(C(C)C)C(=O)N2CCCC2C(=O)NC1C (stereo not drawn) [Compound 245, C15-Amphomycin-9-(N-Benzyl-Gly)] (Pentadecanoyl-D[ξAbu(βξ-NH2)][Pip][ξAsp(βξ-Me)]DGDG[X42]VP; lactam 2-C; configuration not given here) |  |
| 2 | CCCCCCCCCCCCCCC(=O)NC(CC(=O)O)C(=O)NC1C(=O)N2CCCCC2C(=O)NC(C(C)C(=O)O)C(=O)NC(CC(=O)O)C(=O)NCC(=O)NC(CC(=O)O)C(=O)NCC(=O)NC(C(C)NC(=O)CCN(CC)CC)C(=O)NC(C(C)C)C(=O)N2CCCC2C(=O)NC1C (stereo not drawn) [Compound 246, C15-Amphomycin-9-(N,N-Diethyl-β-Ala)] (Pentadecanoyl-D[ξAbu(βξ-NH2)][Pip][ξAsp(βξ-Me)]DGDG[X45]VP; lactam 2-C; configuration not given here) |  |
| 2 to 4 | CCCCCCCCCCCCCCCCNC(=O)NC(CC(=O)O)C(=O)NC1C(=O)N2CCCCC2C(=O)NC(C(C)C(=O)O)C(=O)NC(CC(=O)O)C(=O)NCC(=O)NC(CC(=O)O)C(=O)NCC(=O)NC(C(C)N)C(=O)NC(C(C)C)C(=O)N2CCCC2C(=O)NC1C (centres unmarked) [Compound 249, CH3—(CH2)15—NH—C(═O)-Amphomycin] |  |
| 32 | CCCCCCCCNC(=O)NC(CC(=O)O)C(=O)NC1C(=O)N2CCCCC2C(=O)NC(C(C)C(=O)O)C(=O)NC(CC(=O)O)C(=O)NCC(=O)NC(CC(=O)O)C(=O)NCC(=O)NC(C(C)N)C(=O)NC(C(C)C)C(=O)N2CCCC2C(=O)NC1C (centres unmarked) [Compound 252, CH3—(CH2)7—NH—C(═O)-Amphomycin] |  |
| 2 to 4 | CCCCCCCCCCCCNC(=O)NCC(=O)NC(CC(=O)O)C(=O)NC1C(=O)N2CCCCC2C(=O)NC(C(C)C(=O)O)C(=O)NC(CC(=O)O)C(=O)NCC(=O)NC(CC(=O)O)C(=O)NCC(=O)NC(C(C)N)C(=O)NC(C(C)C)C(=O)N2CCCC2C(=O)NC1C (stereo not drawn) [Compound 254, CH3—(CH2)11—NH—C(═O)-Gly-Amphomycin] ({NH(CH2)11CH3-CO}-GD[ξAbu(βξ-NH2)][Pip][ξAsp(βξ-Me)]DGDG[ξAbu(3ξ-NH2)]VP; lactam 3-C; configuration not given here) |  |
| 4 | CCCCCCCCCCCCCCC(=O)NC(CC(=O)O)C(=O)NC1C(=O)N2CCCCC2C(=O)NC(C(C)C(=O)O)C(=O)NC(CC(=O)O)C(=O)NCC(=O)NC(CC(=O)O)C(=O)NCC(=O)NC(C(C)NC(=O)[C@H](N)CO)C(=O)NC(C(C)C)C(=O)N2CCCC2C(=O)NC1C (stereo partly drawn) [Compound 262, C15-Amphomycin-(D-Ser)] (Pentadecanoyl-[ξD][ξAbu(βξ-NH2)][ξPip][ξAsp(βξ-Me)][ξD]G[ξD]G[X22][ξV][ξP]; lactam 2-C) |  |
| 32 | CCCCCCCCCCCCCCC(=O)NC(CC(=O)O)C(=O)NC1C(=O)N2CCCCC2C(=O)NC(C(C)C(=O)O)C(=O)NC(CC(=O)O)C(=O)NCC(=O)NC(CC(=O)O)C(=O)NCC(=O)NC(C(C)NC(=O)[C@H](N)Cc2ccc(O)cc2)C(=O)NC(C(C)C)C(=O)N2CCCC2C(=O)NC1C (stereo partly drawn) [Compound 263, C15-Amphomycin-(D-Tyr)] |  |
| 8 | CCCCCCCCCCCCCCC(=O)NC(CC(=O)O)C(=O)NC1C(=O)N2CCCCC2C(=O)NC(C(C)C(=O)O)C(=O)NC(CC(=O)O)C(=O)NCC(=O)NC(CC(=O)O)C(=O)NCC(=O)NC(C(C)NC(=O)[C@H](N)Cc2c[nH]c3ccccc23)C(=O)NC(C(C)C)C(=O)N2CCCC2C(=O)NC1C (stereo partly drawn) [Compound 264, C15-Amphomycin-(D-Trp)] |  |
| 8 to 16 | CCCCCCCCCCCCCCC(=O)NC(CC(=O)O)C(=O)NC1C(=O)N2CCCCC2C(=O)NC(C(C)C(=O)O)C(=O)NC(CC(=O)O)C(=O)NCC(=O)NC(CC(=O)O)C(=O)NCC(=O)NC(C(C)NCc2ccc(O)cc2)C(=O)NC(C(C)C)C(=O)N2CCCC2C(=O)NC1C (stereo not drawn) [Compound 266, C15-Amphomycin-9-(4-Hydroxybenzyl)] (Pentadecanoyl-D[ξAbu(βξ-NH2)][Pip][ξAsp(βξ-Me)]DGDG[X23]VP; lactam 2-C; configuration not given here) |  |
| 8 | CCCCCCCCCCCCCCC(=O)NC(CC(=O)O)C(=O)NC1C(=O)N2CCCCC2C(=O)NC(C(C)C(=O)O)C(=O)NC(CC(=O)O)C(=O)NCC(=O)NC(CC(=O)O)C(=O)NCC(=O)NC(C(C)N(Cc2ccc(O)cc2)Cc2ccc(O)cc2)C(=O)NC(C(C)C)C(=O)N2CCCC2C(=O)NC1C (stereo not drawn) [Compound 267, C15-Amphomycin-9-N,N-di-(p-Hydroxybenzyl)] (Pentadecanoyl-D[ξAbu(βξ-NH2)][Pip][ξAsp(βξ-Me)]DGDG[X35]VP; lactam 2-C; configuration not given here) |  |
| 1 | CCCCCCCCCCCCCCC(=O)NC(CC(=O)O)C(=O)NC1C(=O)N2CCCCC2C(=O)NC(C(C)C(=O)O)C(=O)NC(CC(=O)O)C(=O)NCC(=O)NC(CC(=O)O)C(=O)NCC(=O)NC(C(C)NC(=O)CN(C)C)C(=O)NC(C(C)C)C(=O)N2CCCC2C(=O)NC1C (stereo not drawn) [Compound 268, C15-Amphomycin-9-(N,N-Dimethylglycine)] (Pentadecanoyl-D[ξAbu(βξ-NH2)][Pip][ξAsp(βξ-Me)]DGDG[X36]VP; lactam 2-C; configuration not given here) |  |
| 4 to 8 | CCCCCCCCCCS(=O)(=O)NCC(=O)NC(CC(=O)O)C(=O)NC1C(=O)N2CCCCC2C(=O)NC(C(C)C(=O)O)C(=O)NC(CC(=O)O)C(=O)NCC(=O)NC(CC(=O)O)C(=O)NCC(=O)NC(C(C)N)C(=O)NC(C(C)C)C(=O)N2CCCC2C(=O)NC1C (stereo not drawn) [Compound 269, CH3—(CH2)9—SO2-Gly-Amphomycin] (X19-GD[ξAbu(βξ-NH2)][Pip][ξAsp(βξ-Me)]DGDG[ξAbu(3ξ-NH2)]VP; lactam 3-C; configuration not given here) |  |
| 16 to 32 | CCCCCCCCCCCCCCCCS(=O)(=O)N[C@@H](Cc1ccccc1)C(=O)NC(CC(=O)O)C(=O)NC1C(=O)N2CCCCC2C(=O)NC(C(C)C(=O)O)C(=O)NC(CC(=O)O)C(=O)NCC(=O)NC(CC(=O)O)C(=O)NCC(=O)NC(C(C)N)C(=O)NC(C(C)C)C(=O)N2CCCC2C(=O)NC1C (stereo partly drawn) [Compound 270, CH3—(CH2)15—SO2-Phe-Amphomycin] (Hexadecanesulfonyl-F[ξD][ξAbu(βξ-NH2)][ξPip][ξAsp(βξ-Me)][ξD]G[ξD]G[ξAbu(3ξ-NH2)][ξV][ξP]; lactam 3-C) |  |
